Legend:
MASL1 [1] = molecular target: T1, MASL1 (Homo sapiens, UniProt Q9Y4C4); assay: pulldown on GTP-sepharose beads, competition with free GTP, immunoblot; type: binding; details: clarified HEK293T lysate, 4 °C, 2 h; free GTP 10 mM; immobilised GTP; ROC domain site
T1 construct: gene MFHAS1; overexpressed in HEK293T, clarified lysate; plasmid from Genecopoeia
T1 sequence (Q9Y4C4 2-1052): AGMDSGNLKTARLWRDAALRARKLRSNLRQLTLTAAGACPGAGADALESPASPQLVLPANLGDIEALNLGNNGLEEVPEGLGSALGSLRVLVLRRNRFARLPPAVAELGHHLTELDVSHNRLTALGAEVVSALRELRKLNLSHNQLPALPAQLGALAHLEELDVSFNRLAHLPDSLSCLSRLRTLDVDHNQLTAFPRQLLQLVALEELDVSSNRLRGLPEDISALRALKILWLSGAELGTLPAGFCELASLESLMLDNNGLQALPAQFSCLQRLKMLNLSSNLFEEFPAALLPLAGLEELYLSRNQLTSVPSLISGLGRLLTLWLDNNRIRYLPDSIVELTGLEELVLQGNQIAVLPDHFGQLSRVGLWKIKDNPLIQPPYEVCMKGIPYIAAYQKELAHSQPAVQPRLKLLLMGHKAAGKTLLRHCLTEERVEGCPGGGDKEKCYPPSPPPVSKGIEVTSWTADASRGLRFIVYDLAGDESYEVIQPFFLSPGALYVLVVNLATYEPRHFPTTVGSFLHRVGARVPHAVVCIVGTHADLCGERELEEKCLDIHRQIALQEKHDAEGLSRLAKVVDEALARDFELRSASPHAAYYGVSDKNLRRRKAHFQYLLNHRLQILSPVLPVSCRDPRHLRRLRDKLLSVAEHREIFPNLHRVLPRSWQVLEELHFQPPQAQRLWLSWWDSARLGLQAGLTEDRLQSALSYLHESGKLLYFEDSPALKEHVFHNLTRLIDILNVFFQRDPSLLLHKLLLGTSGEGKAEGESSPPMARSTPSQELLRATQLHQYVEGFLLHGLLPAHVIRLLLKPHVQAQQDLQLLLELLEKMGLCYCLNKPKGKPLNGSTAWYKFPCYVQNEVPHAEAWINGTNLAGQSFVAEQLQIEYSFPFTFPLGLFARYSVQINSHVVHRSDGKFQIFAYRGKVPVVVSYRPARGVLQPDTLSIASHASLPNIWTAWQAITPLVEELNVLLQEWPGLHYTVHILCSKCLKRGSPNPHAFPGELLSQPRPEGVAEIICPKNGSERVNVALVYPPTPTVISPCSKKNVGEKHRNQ

MASL1 [2] = molecular target: T1, MASL1; assay: size exclusion chromatography of lysate, shift between HMW and LMW complex, dot blot; type: biochemical; details: 200 µM GDP in HEK293T lysate and mobile phase, pH 7.5; indirect read-out of binding, K422A used as control

Nc1nc2c(ncn2[C@@H]2O[C@H](COP(=O)(O)OP(=O)(O)OP(=O)(O)O)[C@@H](O)[C@H]2O)c(=O)[nH]1 [GTP]
pulldown on GTP-sepharose beads, competition with free GTP, immunoblot (MASL1 [1]): Wild type HA-tagged MASL1 was able to bind GTP immobilized on sepharose beads

Nc1nc2c(ncn2[C@@H]2O[C@H](COP(=O)(O)OP(=O)(O)O)[C@@H](O)[C@H]2O)c(=O)[nH]1 [GDP]
size exclusion chromatography of lysate, shift between HMW and LMW complex, dot (MASL1 [2]): GDP shifted the equilibrium between LMW and HMW complex towards the latter

From article PMC3995007, “GTP binding controls complex formation by the human ROCO protein MASL1” (The Febs Journal, 2013)
